Where “and” joins values, the source holds several entries; their conditions need not be identical. Equal values may be shown once.
How the values were obtained:
[1] = Liquid; for viscosity: Concentric cylinders viscometry; for mass density: Vibrating tube method
[2] = refractive index (Na D-line) (dimensionless); conditions: 101.33 kPa, Liquid, Standard Abbe refractometry
[3] = xn = mol fraction of the nth substance listed; conditions: 100 kPa, Liquid, x2 = 0; for viscosity: Concentric cylinders viscometry; for mass density: Vibrating tube method
[4] = refractive index (Na D-line) (dimensionless); xn = mol fraction of the nth substance listed; conditions: 100 kPa, Liquid, Standard Abbe refractometry, x2 = 0

CCCCO [butan-1-ol]
[1], 100 kPa
Conditions | mass density [kg/m3] | viscosity [mPa·s]
288.15 K | 813.373 | 3.375
293.15 K | 809.573 | 2.945
298.15 K | 805.762 | 2.581
303.15 K | 801.923 | 2.272
308.15 K | 798.053 | 2.008
313.15 K | 794.147 | 1.782
318.15 K | 790.231 | 1.587
323.15 K | 786.238 | 1.419

[2]
Conditions | refractive index
288.15 K | 1.40135
293.15 K | 1.39932
298.15 K | 1.3973
303.15 K | 1.39523
308.15 K | 1.39318
313.15 K | 1.3911
318.15 K | 1.38901
323.15 K | 1.38688

CCCCO [butan-1-ol] + CCC(C)=O
Conditions | mass density, [3] [kg/m3] | refractive index, [4] | viscosity, [3] [mPa·s]
288.15 K | 813.373 | 1.40135 | 3.375
293.15 K | 809.573 | 1.39932 | 2.945
298.15 K | 805.762 | 1.3973 | 2.581
303.15 K | 801.923 | 1.39523 | 2.272
308.15 K | 798.053 | 1.39318 | 2.008
313.15 K | 794.147 | 1.3911 | 1.782
318.15 K | 790.231 | 1.38901 | 1.587
323.15 K | 786.238 | 1.38688 | 1.419

CCC(C)=O [butanone]
[1], 100 kPa
Conditions | mass density [kg/m3] | viscosity
288.15 K | 810.133 | 0.4306 mPa·s and 0.4306 mPa·s
293.15 K | 804.926 | 0.4136 mPa·s and 0.4136 mPa·s
298.15 K | 799.695 | 0.3962 mPa·s and 0.3962 mPa·s
303.15 K | 794.435 | 0.3793 mPa·s and 0.3793 mPa·s
308.15 K | 789.142 | 0.3626 mPa·s and 0.3626 mPa·s
313.15 K | 783.814 | 0.3461 mPa·s and 0.3461 mPa·s
318.15 K | 778.451 | 0.3303 mPa·s and 0.3303 mPa·s
323.15 K | 773.047 | 0.3168 mPa·s and 0.3167 mPa·s

[2]
Conditions | refractive index
288.15 K | 1.38153
293.15 K | 1.37892
298.15 K | 1.37631
303.15 K | 1.37366
308.15 K | 1.37102
313.15 K | 1.36834
318.15 K | 1.36565
323.15 K | 1.36294

CCC(C)=O [butanone] + COC(=O)CCCCC(=O)OC
[3]
Conditions | viscosity [mPa·s]
288.15 K | 0.4306
293.15 K | 0.4136
298.15 K | 0.3962
303.15 K | 0.3793
308.15 K | 0.3626
313.15 K | 0.3461
318.15 K | 0.3303
323.15 K | 0.3167

COC(=O)CCCCC(=O)OC [dimethyl 1,6-hexanedioate]
[1]
Conditions | mass density, 293.15 K [kg/m3] | viscosity, 288.15 K [mPa·s] | viscosity, 293.15 K [mPa·s] | viscosity, 298.15 K [mPa·s] | viscosity, 303.15 K [mPa·s] | viscosity, 308.15 K [mPa·s] | viscosity, 313.15 K [mPa·s] | viscosity, 318.15 K [mPa·s] | viscosity, 323.15 K [mPa·s]
100 kPa | – | 3.751 | 3.289 | 2.91 | 2.604 | 2.342 | 2.121 | 1.933 | 1.79
101.33 kPa | 1061.93 | – | – | – | – | – | – | – | –

Conditions | refractive index
[2], 298.15 K | 1.4264

Source: the NIST ThermoML archive (doi:10.1021/je5007696)
